Data reported in patent publication US20200369728A1, “PEPTIDOMIMETIC MACROCYCLES AND USES THEREOF” (Aileron Therapeutics, Inc., priority 2015, published 2020).
Bridge positions count the residues as written; N and C are the ends. Square brackets hold non-standard residues; d marks the D form. Peptide text beside a SMILES is read from it. Trp(6-Cl) = N[C@@H](Cc1c[nH]c2cc(Cl)ccc12)C(=O)O; R8 = C=CCCCCCC[C@@](C)(N)C(=O)O; hLeu = CC(C)CC[C@H](N)C(=O)O; S5 = C=CCCC[C@](C)(N)C(=O)O

Assays:
RKO = experiment: Cell viability assay (MTT), RKO; conditions: read-out: RKO EC50 (72 h)
Caspase 3 = Caspase 3 detection assay in SJSA1 cells; assay type: cell-based; conditions: SJSA1, 48 h, Caspase 3 activation over DMSO-treated cells
SJSA-1 cells = experiment: Cell lysis by peptidomimetic macrocycles (LDH release); assay type: cell-based; conditions: SJSA-1, 1 h
Method in brief: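 SJSA-1 cells plated the day before, switched to RPMI with 1% FBS, then exposed 1 h at 37 °C to macrocycle at final 50 μM to 6.25 μM in 0.5% DMSO. LDH released into the supernatant was measured by kit. Controls: 0.5% DMSO (non-lytic), 10 μM melittin and 1% Triton X-100 (lytic).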

| Compound | EC50 (RKO) [µM] | caspase 0.3 μM (Caspase 3) | caspase 1 μM (Caspase 3) | caspase 3 μM (Caspase 3) | caspase 10 μM (Caspase 3) | caspase 30 μM (Caspase 3) | 6.25 μM % Lysed cells (1 h LDH) (SJSA-1 cells) [%] | 25 μM % Lysed cells (1 h LDH) (SJSA-1 cells) [%] | 50 μM % Lysed cells (1 h LDH) (SJSA-1 cells) [%] |
| --- | --- | --- | --- | --- | --- | --- | --- | --- | --- |
| CC(=O)N[C@@H](CC(C)C)C(=O)N[C@H](C(=O)N[C@@H](Cc1ccccc1)C(=O)N[C@]1(C)CCCCCCC=CCCC[C@@](C)(C(=O)N[C@@H](C)C(=O)N[C@@H](C)C(=O)N[C@@H](C)C(=O)N[C@@H](C)C(=O)N[C@@H](C)C(=O)N[C@H](C)C(N)=O)NC(=O)[C@H](CC(C)C)NC(=O)[C@H](CCC(N)=O)NC(=O)[C@H](C)NC(=O)[C@H](Cc2c[nH]c3cc(Cl)ccc23)NC(=O)[C@H](Cc2ccc(O)cc2)NC(=O)[C@H](C)NC1=O)[C@@H](C)O (single isomer, unassigned) [compound 338] | < 5 | 1 | 5 | 23 | 20 | 29 | 0 | 0 | 1 |
| CC(=O)N[C@@H](CCC(=O)O)C(=O)N[C@H](C(=O)N[C@@H](Cc1ccccc1)C(=O)N[C@]1(C)CCCCCCC=CCCC[C@@](C)(C(=O)N[C@@H](C)C(=O)N[C@@H](C)C(=O)N[C@@H](C)C(=O)N[C@@H](C)C(=O)N[C@@H](C)C(=O)N[C@H](C)C(N)=O)NC(=O)[C@H](CC(C)C)NC(=O)[C@H](CCC(N)=O)NC(=O)[C@H](C)NC(=O)[C@H](Cc2c[nH]c3ccccc23)NC(=O)[C@H](Cc2ccc(O)cc2)NC(=O)[C@H](CCC(=O)O)NC1=O)[C@@H](C)O (single isomer, unassigned) [compound 341] | 15 to 30 | 3 | 8 | 11 | 14 | 21 | 0 | 0 | 0 |
| CC(=O)N[C@@H](CC(C)C)C(=O)N[C@H](C(=O)N[C@@H](Cc1ccccc1)C(=O)N[C@]1(C)CCCCCCC=CCCC[C@@](C)(C(=O)N[C@@H](CO)C(=O)N[C@@H](C)C(=O)N[C@@H](C)C(=O)N[C@H](C)C(N)=O)NC(=O)[C@H](CC2CCC2)NC(=O)[C@H](CCC(N)=O)NC(=O)[C@H](C)NC(=O)[C@H](Cc2c[nH]c3ccccc23)NC(=O)[C@H](Cc2ccc(O)cc2)NC(=O)[C@H](CCC(=O)O)NC1=O)[C@@H](C)O (single isomer, unassigned) [compound 353] | 15 to 30 | 1 | 2 | 5 | 7 | 30 | 0 | 0 | 0 |
| CC(=O)N[C@@H](C)C(=O)N[C@@H](CC(C)C)C(=O)N[C@H](C(=O)N[C@@H](Cc1ccccc1)C(=O)N[C@]1(C)CCCCCCC=CCCC[C@@](C)(C(=O)N[C@@H](CO)C(=O)N[C@@H](C)C(=O)N[C@@H](C)C(=O)N[C@H](C)C(N)=O)NC(=O)[C@H](CC2CCC2)NC(=O)[C@H](CCC(N)=O)NC(=O)[C@H](C)NC(=O)[C@H](Cc2c[nH]c3ccccc23)NC(=O)[C@H](Cc2ccc(O)cc2)NC(=O)[C@H](CCC(=O)O)NC1=O)[C@@H](C)O (single isomer, unassigned) [compound 355] | 15 to 30 | 1 | 4 | 11 | 13 | 30 | 0 | 0 | 0 |
| CC(=O)N[C@@H](C)C(=O)N[C@@H](CC(C)C)C(=O)N[C@H](C(=O)N[C@@H](Cc1ccccc1)C(=O)N[C@]1(C)CCCCCCC=CCCC[C@@](C)(C(=O)N[C@@H](CO)C(=O)N[C@@H](C)C(=O)N[C@@H](C)C(=O)N[C@@H](C)C(=O)N[C@H](C)C(N)=O)NC(=O)[C@H](CC2CCC2)NC(=O)[C@H](CCC(N)=O)NC(=O)[C@H](C)NC(=O)[C@H](Cc2c[nH]c3ccccc23)NC(=O)[C@H](Cc2ccc(O)cc2)NC(=O)[C@H](CCC(=O)O)NC1=O)[C@@H](C)O (single isomer, unassigned) [compound 357] | < 5 | 2 | 7 | 11 | 15 | 23 | 0 | 0 | 0 |
| CC(=O)N[C@@H](C)C(=O)N[C@@H](C)C(=O)N[C@@H](CC(C)C)C(=O)N[C@H](C(=O)N[C@@H](Cc1ccccc1)C(=O)N[C@]1(C)CCCCCCC=CCCC[C@@](C)(C(=O)N[C@@H](CO)C(=O)N[C@@H](C)C(=O)N[C@@H](C)C(=O)N[C@@H](C)C(=O)N[C@H](C)C(N)=O)NC(=O)[C@H](CC2CCC2)NC(=O)[C@H](CCC(N)=O)NC(=O)[C@H](C)NC(=O)[C@H](Cc2c[nH]c3ccccc23)NC(=O)[C@H](Cc2ccc(O)cc2)NC(=O)[C@H](CCC(=O)O)NC1=O)[C@@H](C)O (single isomer, unassigned) [compound 359] | 15 to 30 | 3 | 9 | 11 | 13 | 23 | 0 | 0 | 0 |
| CC(=O)N[C@@H](CC(C)C)C(=O)N[C@H](C(=O)N[C@@H](Cc1ccccc1)C(=O)N[C@]1(C)CCCCCCC=CCCC[C@@](C)(C(=O)N[C@@H](CO)C(=O)N[C@@H](C)C(=O)N[C@@H](CC(C)C)C(N)=O)NC(=O)[C@H](CC(C)C)NC(=O)[C@H](CCC(N)=O)NC(=O)[C@H](C)NC(=O)[C@H](Cc2c[nH]c3ccccc23)NC(=O)[C@H](Cc2ccc(O)cc2)NC(=O)[C@H](C)NC1=O)[C@@H](C)O [compound 4] (Ac-LTF[R8]AYWAQL[S5]SAL-NH2; staple 4-11) | < 5 | – | – | 9 | 37 | 35 | −2 | 1 | 2 |
| CC(=O)N[C@@H](CC(C)C)C(=O)N[C@H](C(=O)N[C@@H](Cc1ccccc1)C(=O)N[C@]1(C)CCCCCC/C=C/CCC[C@@](C)(C(=O)N[C@@H](CO)C(=O)N[C@@H](C)C(=O)N[C@@H](C)C(N)=O)NC(=O)[C@H](CC(C)C)NC(=O)[C@H](CCC(N)=O)NC(=O)[C@H](C)NC(=O)[C@H](Cc2c[nH]c3cc(Cl)ccc23)NC(=O)[C@H](Cc2ccc(O)cc2)NC(=O)[C@H](C)NC1=O)[C@@H](C)O [compound 99] (Ac-LTF[R8]AY[Trp(6-Cl)]AQL[S5]SAA-NH2; staple (E) 4-11) | < 5 | 1 | – | 7 | 31 | 33 | 1.5 | 2 | 3.5 |
| CC(=O)N[C@@H](CC(C)C)C(=O)N[C@H](C(=O)N[C@@H](Cc1ccccc1)C(=O)N[C@]1(C)CCCCCC/C=C\CCC[C@@](C)(C(=O)N[C@@H](CO)C(=O)N[C@@H](C)C(=O)N[C@@H](C)C(N)=O)NC(=O)[C@H](CCC(C)C)NC(=O)[C@H](CCC(N)=O)NC(=O)[C@H](C)NC(=O)[C@H](Cc2c[nH]c3ccccc23)NC(=O)[C@H](Cc2ccc(O)cc2)NC(=O)[C@H](C)NC1=O)[C@@H](C)O [compound 114] (Ac-LTF[R8]AYWAQ[hLeu][S5]SAA-NH2; staple (Z) 4-11) | 5 to 15 | 1 | – | 6 | 28 | 34 | 3 | 4 | 9 |
